Assay results taken from ChEMBL document CHEMBL1201862, “PubChem BioAssay data set” (2004).
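In this assay, cells in 96-well plates receive the compound at five concentrations for 48 hours. Endpoints are linearly interpolated between the surrounding concentrations. GI50 = concentration required for 50% inhibition of growth.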 The source made the active and inactive calls. Rule as the data show it: active = GI50 up to about 1.1 µM and inactive = higher.

Columns and labels:
Assay in all cases: NCI-60 cell line screen, 48 h
OVCAR-8 = test system: OVCAR-8
M14 = test system: M14
CAKI-1 = test system: CAKI-1
MDA-MB-435 = test system: MDA-MB-435
SF-295 = test system: SF-295
SK-MEL-28 = test system: SK-MEL-28
HCT-15 = test system: HCT-15
RXF 393 = test system: RXF 393
COLO 205 = test system: COLO 205
MDA-N = test system: MDA-N
UACC-257 = test system: UACC-257
IGROV-1 = test system: IGROV-1
OVCAR-4 = test system: OVCAR-4
ACHN = test system: ACHN
NCI-H460 = test system: NCI-H460
UO-31 = test system: UO-31
HCT-116 = test system: HCT-116
RPMI-8226 = test system: RPMI-8226
K562 = test system: K562
UACC-62 = test system: UACC-62
CCRF-CEM = test system: CCRF-CEM
HOP-62 = test system: HOP-62
SR = test system: SR
SN12C = test system: SN12C
PC-3 = test system: PC-3
KM12 = test system: KM12
SW-620 = test system: SW-620
NCI-H226 = test system: NCI-H226
NCI-H23 = test system: NCI-H23
SK-OV-3 = test system: SK-OV-3
U-251 = test system: U-251
786-0 = test system: 786-0
TK-10 = test system: TK-10
SNB-19 = test system: SNB-19
MDA-MB-231 = test system: MDA-MB-231
EKVX = test system: EKVX
SK-MEL-5 = test system: SK-MEL-5
SF-268 = test system: SF-268
Malme-3M = test system: Malme-3M
DU-145 = test system: DU-145
SF-539 = test system: SF-539
LOX IMVI = test system: LOX IMVI
A498 = test system: A498
MCF7 = test system: MCF7
HL-60 = test system: HL-60
HT-29 = test system: HT-29
MOLT-4 = test system: MOLT-4
NCI/ADR-RES = test system: NCI/ADR-RES
A549 = test system: A549
NCI-H522 = test system: NCI-H522
SNB-75 = test system: SNB-75
OVCAR-3 = test system: OVCAR-3
OVCAR-5 = test system: OVCAR-5
HCC 2998 = test system: HCC 2998
HOP-92 = test system: HOP-92
Hs-578T = test system: Hs-578T
T47D = test system: T47D

For `COC(=O)[C@H](Cc1ccc(OC(C)(C)C)cc1)N[C@H](C)C(=O)N[C@@H](Cc1ccccc1)C(=O)OCc1ccccc1`, the GI50 (OVCAR-8) was 52.2 µM (inactive), the GI50 (M14) was 52.4 µM (inactive) and the GI50 (CAKI-1) was > 100 µM (inactive). The GI50 (MDA-MB-435) was 82.8 µM (inactive), the GI50 (SF-295) was > 100 µM (inactive) and the GI50 (SK-MEL-28) was > 100 µM (inactive). For the same compound, the GI50 (HCT-15) was > 100 µM, the GI50 (RXF 393) was > 100 µM (inactive) and the GI50 (COLO 205) was 96.6 µM (inactive). The GI50 (MDA-N) was > 100 µM (inactive), the GI50 (UACC-257) was > 100 µM (inactive) and the GI50 (IGROV-1) was > 100 µM (inactive). For the same compound, the GI50 (OVCAR-4) was > 100 µM (inactive), the GI50 (ACHN) was 93.1 µM (inactive) and the GI50 (NCI-H460) was > 100 µM (inactive). The GI50 (UO-31) was 14.8 µM (inactive), the GI50 (HCT-116) was 35.6 µM (inactive) and the GI50 (RPMI-8226) was 37.8 µM (inactive). The GI50 (K562) was 25.6 µM (inactive), the GI50 (UACC-62) was > 100 µM (inactive) and the GI50 (CCRF-CEM) was 40.2 µM (inactive). The GI50 (HOP-62) was > 100 µM (inactive), the GI50 (SR) was 26.2 µM (inactive) and the GI50 (SN12C) was 26.9 µM (inactive). The GI50 (PC-3) was 61.7 µM (inactive), the GI50 (KM12) was 83.9 µM (inactive) and the GI50 (SW-620) was > 100 µM (inactive). The GI50 (NCI-H226) was 25.8 µM (inactive), the GI50 (NCI-H23) was > 100 µM (inactive) and the GI50 (SK-OV-3) was > 100 µM (inactive). The GI50 (U-251) was > 100 µM (inactive), the GI50 (786-0) was 54.3 µM (inactive) and the GI50 (TK-10) was > 100 µM (inactive). The GI50 (SNB-19) was > 100 µM (inactive), the GI50 (MDA-MB-231) was > 100 µM (inactive) and the GI50 (EKVX) was > 100 µM (inactive). For the same compound, the GI50 (SK-MEL-5) was > 100 µM (inactive), the GI50 (SF-268) was > 100 µM (inactive) and the GI50 (Malme-3M) was > 100 µM (inactive). For the same compound, the GI50 (DU-145) was > 100 µM (inactive), the GI50 (SF-539) was > 100 µM (inactive) and the GI50 (LOX IMVI) was 34.4 µM (inactive). The GI50 (A498) was > 100 µM (inactive), the GI50 (MCF7) was 34.5 µM (inactive) and the GI50 (HL-60) was 45.5 µM (inactive). For the same compound, the GI50 (HT-29) was 47.2 µM (inactive), the GI50 (MOLT-4) was 20 µM (inactive) and the GI50 (NCI/ADR-RES) was > 100 µM (inactive). The GI50 (A549) was 46.6 µM (inactive), the GI50 (NCI-H522) was > 100 µM (inactive) and the GI50 (SNB-75) was 57.1 µM (inactive). For the same compound, the GI50 (OVCAR-3) was 86.3 µM (inactive), the GI50 (OVCAR-5) was > 100 µM (inactive) and the GI50 (HCC 2998) was > 100 µM (inactive). For the same compound, the GI50 (HOP-92) was > 100 µM (inactive) and the GI50 (Hs-578T) was > 100 µM (inactive).
In the case of `N#Cc1ccc(/N=C(/NCC(=O)O)Nc2cccc3ccccc23)cc1`, the GI50 (OVCAR-8) is reported as > 10 µM (inactive), the GI50 (M14) is reported as > 10 µM (inactive) and the GI50 (CAKI-1) is reported as > 10 µM (inactive). The GI50 (SF-295) was > 10 µM (inactive), the GI50 (SK-MEL-28) was > 10 µM (inactive) and the GI50 (HCT-15) was > 10 µM. For the same compound, the GI50 (RXF 393) was > 10 µM (inactive), the GI50 (COLO 205) was > 10 µM (inactive) and the GI50 (MDA-N) was > 10 µM (inactive). The GI50 (UACC-257) was > 10 µM (inactive), the GI50 (IGROV-1) was > 10 µM (inactive) and the GI50 (RPMI-8226) was > 10 µM (inactive). The GI50 (K562) was > 10 µM (inactive), the GI50 (UACC-62) was > 10 µM (inactive) and the GI50 (CCRF-CEM) was > 10 µM (inactive). For the same compound, the GI50 (HOP-62) was > 10 µM (inactive), the GI50 (SR) was > 10 µM (inactive) and the GI50 (SN12C) was > 10 µM (inactive). The GI50 (PC-3) was > 10 µM (inactive), the GI50 (KM12) was > 10 µM (inactive) and the GI50 (SW-620) was > 10 µM (inactive). For the same compound, the GI50 (NCI-H23) was > 10 µM (inactive), the GI50 (SK-OV-3) was > 10 µM (inactive) and the GI50 (786-0) was > 10 µM (inactive). For the same compound, the GI50 (TK-10) was > 10 µM (inactive), the GI50 (MDA-MB-231) was > 10 µM (inactive) and the GI50 (EKVX) was > 10 µM (inactive). The GI50 (SK-MEL-5) was > 10 µM (inactive), the GI50 (SF-268) was > 10 µM (inactive) and the GI50 (Malme-3M) was > 10 µM (inactive). The GI50 (DU-145) was > 10 µM (inactive), the GI50 (MCF7) was > 10 µM (inactive) and the GI50 (HL-60) was > 10 µM (inactive). For the same compound, the GI50 (HT-29) was > 10 µM (inactive), the GI50 (MOLT-4) was > 10 µM (inactive) and the GI50 (A549) was > 10 µM (inactive). The GI50 (SNB-75) was > 10 µM (inactive), the GI50 (T47D) was > 10 µM (inactive) and the GI50 (HCC 2998) was > 10 µM (inactive).
For `CC(C)=CCC1=C(O)C(=O)c2ccccc2C1=O`, the GI50 (NCI-H226) was > 100 µM (inactive), the GI50 (EKVX) was > 100 µM (inactive) and the GI50 (HCC 2998) was > 100 µM (inactive).
